Results published in patent publication US20250382583A1, “ENHANCED METHODS FOR INDUCING AND MAINTAINING NAIVE HUMAN PLURIPOTENT STEM CELLS” (Washington University, priority 2021, published 2025).

What was measured:
Format in all cases: cell-based, human
[1] = system: WIBR3 OCT4-ΔPE-GFP+-naïve hESCs; experiment: Extended maintenance assay, OCT4-ΔPE-GFP reporter activity (imaging, qRT-PCR); settings: for activity in maintaining OCT4-ΔPE-GFP reporter activity after passaging: 2.5 and 5 μM, two passages
Procedure: (§1) Defining alternative naïve maintenance media: To define the activity of selected hit compounds during extended naïve culture, naïve hESCs derived from the primed state and maintained in 5i/L/A were dissociated with Accutase (Thermo Fischer Scientific, A1110501) and 1.5×10^5 single cells were seeded in 5i/L/A media on MEF-coated plates. After 24 hours, 5i/L/A media were switched to experimental maintenance conditions to validate hits from the screen. After 4-6 days the cells were split in a 1:2 or 1:3 ratio and further maintained for 4-6 days before analysis by FACS, qRT-PCR, AP staining, and/or RNA-seq. 5i/L/A media in which the MEK inhibitor PD0325901 was replaced with 5 μM AZ628 are represented as alternative 5i/L/A (a5i/L/A). FXGY, AXGY, AXGYU, PXGY, and GXGY media were prepared in serum-free N2B27 media supplemented with 1 μM PD166866, 5 μM AZ628, 5 μM AZ628 and 1 μM UNC0638, 1 μM PD0325901, and 5 μM GDC-0994, respectively, together with 2 μM XAV939, 2 μM Gö6983, and 10 μM Y-27632. During these assays cells were fed with fresh media every second day and cultured in 5% O2, 5% CO2 at 37° C. Detailed information on conditions used for defining alternative naïve maintenance media can be found in Tables 1-6.
(§2) Quantitative reverse transcriptase PCR (qRT-PCR): Total RNA was isolated using the E.Z.N.A. total RNA kit I and cDNA synthesis was performed from total RNA using the high-capacity cDNA reverse transcription kit (Applied Biosystems, 4368814). qRT-PCR was performed using PowerUp SYBR Green Master Mix (Applied Biosystems, A25743) on the StepOnePlus Real-Time PCR System (Applied Biosystems). Gene expression was normalized to RPLP0 and analyzed using the ΔCt method. Error bars represent the standard deviation (SD) of the mean of technical replicates.
For this purpose, WIBR3 OCT4-ΔPE-GFP+-naïve hESCs that were generated in the absence of reprogramming transgenes were used using the 5i/L/A cocktail. […] Compounds were tested at two different concentrations (2.5 and 5 μM), and cells were maintained for two passages (FIG. 2A).

H9-naïve hESCs [2] = experiment: Extended maintenance assay, flow cytometry for naïve-specific CD75 and SUSD2; settings: serum-free media supplemented with XGY, 2.5 μM compound
Procedure: as §1
Flow cytometry: Primed hESCs were single-cell dissociated using TrypLE Express, while Accutase was used for naïve hESCs. Cells were resuspended in fibroblast medium and centrifuged. Cell pellets were washed in 5 mL ice-cold PBS. The cells were then resuspended in […] fresh ice-cold FACS buffer (PBS supplemented with 5% FBS), and incubated with antibodies for 30 minutes on ice in the dark. The following antibodies were used: anti-SUSD2-PE (1:100), anti-CD75-eFluor 660 (1:100), anti-CD90-PE (1:100), anti-ITGA6-FITC (1:100) and EGFR-APC (1:25). Post-incubation the cells were washed once with 1 mL ice-cold PBS, resuspended in fresh 500 μl FACS buffer, and passed through a […] cell strainer into round bottom FACS tubes (Corning, #352235). Flow cytometry was performed using a BD LSRFortessa X-20 and the data were analyzed using the FlowJo software.

H9 hESCs = experiment: Primed-to-naïve reprogramming, colony morphology and colony numbers (imaging, AP staining); settings: for morphological appearance of naïve hESCs on individual addition to PXGGY/A: 20 ng/ml LIF, 0.5 μM IM12 or 0.5 μM WH-04, P2
Procedure: (§3) […]: For primed-to-naïve resetting experiments, primed hESCs were dissociated into single cells using TrypLE Express (GIBCO, 12604), washed in fibroblast medium [DMEM (Millipore Sigma, #SLM-021-B) supplemented with 10% FBS (HyClone, SH30396.03, 1×GlutaMAX (GIBCO, 35050), and 1% penicillin-streptomycin (GIBCO, 15140)] and 2×10^5 single primed hESCs were seeded on mitomycin C-inactivated mouse embryonic fibroblast (MEF) feeder cells coated 6 well plates in 3-4 mL mTeSR1 supplemented with 10 μM Y-27632. Two days later, medium was switched to either 5i/L/A or experimental induction media and maintained for 10-12 days. Cells at this stage were considered at passage zero. Cells were then split in a 1:2 or 1:3 ratio every 4-6 days as single cells using Accutase (Thermo Fischer Scientific, A1110501). PXGGY media were prepared in serum-free N2B27 media supplemented with 1 μM PD0325901, 2 μM XAV939, 2 μM Gö6938, 2.5 μM GDC-0994, and 10 μM Y-27632. PXGGY/A media were prepared in PXGGY supplemented with 10 ng/ml Activin A. During these assays cells were fed with fresh media every second day and cultured in 5% O2, 5% CO2 at 37° C. Detailed information on the conditions used for defining alternative naïve induction media can be found in Tables 1-6.
(§4) Alkaline phosphatase (AP) staining: AP staining was performed following the manufacturer's instructions using the Leukocyte Alkaline Phosphatase Kit (Sigma, 86R, 1KT). For AP staining cells were seeded at equal density in 6-well plates and passaged in the same ratio for all conditions. Post-staining cells were allowed to dry overnight in the dark and scanned using HP Color Laser Jet Managed printer/scanner (MFP E67650).
(§5) Imaging: The imaging of H9 and WIBR3 hESCs was performed in live conditions within culture media. For WIBR3 MECP2-GFP/tdTomato hESCs the medium was aspirated, cell were washed twice with PBS, and imaged in 1 mL of PBS. All images were captured at 10× magnification on a Leica DMi8 microscope.
Example 1 establishes the PXGGY/A cocktail enables efficient primed-to-naïve reprogramming, homogenous induction of naïve-specific cell surface markers CD75 and SUSD2, and homogenous X-chromosome reactivation. […] To address this, the impact of ROCK inhibitor Y-27632 titration was first assessed when used continuously or transiently for only 24 hours at the time of passaging during primed-to-naïve reprogramming (FIG. 9A and FIG. 9B). […] The PXGGY/A composition from hereon will be denoted as PXGGY/A to specify transient use of ROCKi.
However, the morphology of naïve hESCs reprogrammed using this condition still appeared flat compared to the characteristic dome-shaped colony morphology associated with naïve pluripotency. […]

naïve hESCs = experiment: Colony morphology, proliferation and colony formation (phase contrast, AP staining) during naïve maintenance
Procedure: as §1, §4, §5

H9 primed hESCs = experiment: Primed-to-naïve resetting, flow cytometry for CD75 and SUSD2
Procedure: as §3, with “PXGGY/A media were prepared in PXGGY supplemented with 10 ng/ml Activin A. During these assays cells were fed with fresh media every second day and cultured in 5% O2, 5% CO2 at 37° C. Detailed information on the conditions used for defining alternative naïve induction media can be found in Tables 1-6.” left out
Flow cytometry: Primed hESCs were single-cell dissociated using TrypLE Express, while Accutase was used for naïve hESCs. […] Flow cytometry was performed using a BD LSRFortessa X-20 and the data were analyzed using the FlowJo software.

H9-naïve hESCs [3] = experiment: qRT-PCR for naïve-specific transcripts (KLF17, DNMT3L) during naïve maintenance
Procedure: as §1, §2

[4] = system: WIBR3 OCT4-ΔPE-GFP+naïve hESCs; experiment: High-throughput chemical screening in absence of 2i, OCT4-ΔPE-GFP reporter, high-content imaging; settings: N2B27/Y
Procedure: High-throughput chemical screening: For high-throughput screening, WIBR3 OCT4-ΔPE-GFP+naïve hESCs generated with inducible KLF2 and NANOG transgenes were used, as described previously. These cells were maintained in 1 μM PD0325901, 1 µM CHIR99021, and 2 μg/ml DOX (Sigma) (2i/DOX). For compound screening in presence of 2i/Y, 3,000 OCT4-ΔPE-GFP+naïve hESCs were seeded per well in vitronectin-coated 384 well plates in serum-free N2B27 media supplemented with 1 μM PD0325901, 1 μM CHIR99021, and 10 μM Y-27632. The next day individual compounds from the Novartis Mechanism of Action (MoA) library were applied at two concentrations (2.5 μM and 5 μM) in duplicate using an Echo 550 Acoustic Liquid Handler (Labcyte), and compounds were refreshed on day 4. Images were analyzed on day 5 post-DOX withdrawal using a Yokogawa Cell Voyager 7000 High-Content Imaging System in confocal mode using a 10× dry (NA=0.45) objective lens using four fields per well that provided for full well coverage. While the screen was performed at two concentrations (2.5 μM and 5 μM), the lower concentration yielded few additional hits. Hit compounds were validated in 384 well plates across an 8-point concentration range in duplicates. […] Images were acquired using the Yokogawa Cell Voyager 7000 on day 7 and analyzed as described above. […]

In the case of `Cc1ccc(NC(=O)c2cccc(C(C)(C)C#N)c2)cc1Nc1ccc2ncn(C)c(=O)c2c1` [AZ628], the “activity in maintaining OCT4-ΔPE-GFP reporter activity after passaging” value ([1]; in Go/Y) was “showed activity”, the “activity in maintaining OCT4-ΔPE-GFP reporter activity after passaging” value ([1]; in XAV/Y) was “showed activity” and the “expansion of OCT4-ΔPE-GFP+ cells” value ([1]; in the presence of either XAV or Go) was “robust expansion”. The “sustaining CD75/SUSD2-positive cells over multiple passages” value (H9-naïve hESCs [2]) was “robustly sustained”.
For `Cc1[nH]c2ccccc2c1C1=C(NCCc2ccc(F)cc2)C(=O)N(C)C1=O` [IM12], the “morphological appearance of naïve hESCs on individual addition to PXGGY/A” value (shortened to “morphological appearance of naïve hESCs”) (H9 hESCs) was “did not result in a major improvement”.
With `CC(C)(C)n1nc(-c2cccc3ccccc23)c2c(N)ncnc21` [Naphtol-PP1] the “colony morphology upon addition to the AXGY cocktail” value (naïve hESCs; added to AXGY) was “enhanced dome-shaped colony morphology”.
With `COc1cc(OC)cc(-c2cc3cnc(N)nc3nc2NC(=O)NC(C)(C)C)c1` [PD166866] the “activity in maintaining OCT4-ΔPE-GFP reporter activity after passaging” value ([1]; in the presence of ROCK inhibitor (Y) alone) was “showed activity”, the “induction of CD75/SUSD2 double-positive cells in primed hESCs” value (H9 primed hESCs; in the presence of XGY and activin A, end of P1) was “heterogeneous induction” and the “concentration effective to maintain expression of naïve-specific transcripts (titration)” value (H9-naïve hESCs [3]; in XAV/Gö/Y, KLF17 and DNMT3L) was 1 µM. For the same compound, the “sustaining CD75/SUSD2-positive cells over multiple passages” value (H9-naïve hESCs [2]) was “robustly sustained”.
In the case of `C/C(=N\NC(=N)N)c1cc(NC(=O)CCCCCCCCC(=O)Nc2cc(/C(C)=N/NC(=N)N)cc(/C(C)=N/NC(=N)N)c2)cc(/C(C)=N/NC(=N)N)c1` [Semapimod], the “proliferation of double-positive cells” value (naïve hESCs; serum-free media supplemented with XGY) was “very limited proliferation” and the “sustaining CD75/SUSD2-positive cells over multiple passages” value (H9-naïve hESCs [2]) was “some double-positive cells”.
With `COc1cc2c(NC3CCN(C(C)C)CC3)nc(C3CCCCC3)nc2cc1OCCCN1CCCC1` [UNC0638] the “colony proliferation compared to AXGY” value (naïve hESCs; added to AXGY) was “slightly reduced” and the “KLF17 expression upon addition to the AXGY cocktail” value (H9-naïve hESCs [3]; added to AXGY) was “further stimulated”.
`COc1ccc(N(C(=O)Oc2c(C)cccc2C)c2ccnc(Nc3ccc(N4CCN(C)CC4)cc3)n2)c(OC)c1` [WH-4-023] was tested, and the “morphological appearance of naïve hESCs” value (H9 hESCs) was “did not result in a major improvement”.
With `Oc1nc(-c2ccc(C(F)(F)F)cc2)nc2c1CSCC2` [XAV939] the “colony size and OCT4-ΔPE-GFP signal compared to inhibition of MEK1” value [4] was “larger colonies but a slightly dimmer OCT4-ΔPE-GFP signal” and the “increase in GFP activity (OCT4-ΔPE-GFP)” value ([4]; validation assays, absence of 2i) was “particularly strong effect”.
`C[C@@H](N)[C@H]1CC[C@H](C(=O)Nc2ccncc2)CC1` [Y-27632] was tested, and the “morphology of reprogrammed naïve hESCs” value (H9 hESCs; transient application (24 hours at passaging) of 10 μM in PXGGY/A) was “improves the morphology” and the “CD75+/SUSD2+ cell proportion” value (H9 primed hESCs; transient application of 10 μM in PXGGY/A, P1) was “without any significant reduction”.
With “LIF: leukemia inhibitory factor, recombinant human cytokine” the “morphological appearance of naïve hESCs” value (H9 hESCs) was “did not result in a major improvement”.
